Experimental data from the NIST ThermoML archive (doi:10.1021/je100237h).
± gives the expanded uncertainty stated by the source.

Conditions: Liquid; for viscosity: 101.33 kPa, Concentric cylinders viscometry; for mass density: Vibrating tube method

COC(=O)CCCCC(=O)OC [dimethyl 1,6-hexanedioate]
Conditions | viscosity [mPa·s]
283.15 K | 4.39 ± 0.09
288.15 K | 3.82 ± 0.08
293.15 K | 3.36 ± 0.07
298.15 K | 2.98 ± 0.06
303.15 K | 2.67 ± 0.06
308.15 K | 2.4 ± 0.05
313.15 K | 2.18 ± 0.05
318.15 K | 1.99 ± 0.04
323.15 K | 1.82 ± 0.04
328.15 K | 1.68 ± 0.04
333.15 K | 1.55 ± 0.03
338.15 K | 1.44 ± 0.03
343.15 K | 1.34 ± 0.03
348.15 K | 1.25 ± 0.03
353.15 K | 1.17 ± 0.03
358.15 K | 1.1 ± 0.02
363.15 K | 1.03 ± 0.02
368.15 K | 0.97 ± 0.02
373.15 K | 0.92 ± 0.02

Conditions | mass density [kg/m3]
293.15 K, 100 kPa | 1061.5 ± 2.1
293.15 K, 10000 kPa | 1067.7 ± 2.2
293.15 K, 20000 kPa | 1073.6 ± 2.2
293.15 K, 30000 kPa | 1079.2 ± 2.2
293.15 K, 40000 kPa | 1084.5 ± 2.2
293.15 K, 50000 kPa | 1089.6 ± 2.2
293.15 K, 60000 kPa | 1094.7 ± 2.2
293.15 K, 70000 kPa | 1099.5 ± 2.3
293.15 K, 80000 kPa | 1104.2 ± 2.3
293.15 K, 90000 kPa | 1108.5 ± 2.3
293.15 K, 100000 kPa | 1112.8 ± 2.3
303.15 K, 100 kPa | 1051.8 ± 2.1
303.15 K, 10000 kPa | 1058 ± 2.1
303.15 K, 20000 kPa | 1064.4 ± 2.2
303.15 K, 30000 kPa | 1070.5 ± 2.2
303.15 K, 40000 kPa | 1076 ± 2.2
303.15 K, 50000 kPa | 1081.5 ± 2.2
303.15 K, 60000 kPa | 1086.7 ± 2.2
303.15 K, 70000 kPa | 1091.5 ± 2.2
303.15 K, 80000 kPa | 1096.1 ± 2.3
303.15 K, 90000 kPa | 1100.6 ± 2.3
303.15 K, 100000 kPa | 1104.7 ± 2.3
303.15 K, 110000 kPa | 1108.9 ± 2.4
303.15 K, 120000 kPa | 1113.1 ± 2.4
303.15 K, 130000 kPa | 1117 ± 2.4
303.15 K, 140000 kPa | 1120.9 ± 2.5
313.15 K, 100 kPa | 1042.1 ± 2.1
313.15 K, 10000 kPa | 1048.9 ± 2.1
313.15 K, 20000 kPa | 1055.6 ± 2.1
313.15 K, 30000 kPa | 1061.8 ± 2.1
313.15 K, 40000 kPa | 1067.5 ± 2.2
313.15 K, 50000 kPa | 1073.2 ± 2.2
313.15 K, 60000 kPa | 1078.6 ± 2.2
313.15 K, 70000 kPa | 1083.7 ± 2.2
313.15 K, 80000 kPa | 1088.7 ± 2.2
313.15 K, 90000 kPa | 1093.2 ± 2.3
313.15 K, 100000 kPa | 1097.2 ± 2.3
313.15 K, 110000 kPa | 1101.5 ± 2.3
313.15 K, 120000 kPa | 1105.6 ± 2.4
313.15 K, 130000 kPa | 1109.8 ± 2.4
313.15 K, 140000 kPa | 1113.8 ± 2.4
323.15 K, 100 kPa | 1031.6 ± 2.1
323.15 K, 10000 kPa | 1038.9 ± 2.1
323.15 K, 20000 kPa | 1045.7 ± 2.1
323.15 K, 30000 kPa | 1052.1 ± 2.1
323.15 K, 40000 kPa | 1058.3 ± 2.1
323.15 K, 50000 kPa | 1063.9 ± 2.2
323.15 K, 60000 kPa | 1069.1 ± 2.2
323.15 K, 70000 kPa | 1074.4 ± 2.2
323.15 K, 80000 kPa | 1079.3 ± 2.2
323.15 K, 90000 kPa | 1084.2 ± 2.2
323.15 K, 100000 kPa | 1088.9 ± 2.3
323.15 K, 110000 kPa | 1093.3 ± 2.3
323.15 K, 120000 kPa | 1097.9 ± 2.3
323.15 K, 130000 kPa | 1102.2 ± 2.4
323.15 K, 140000 kPa | 1106.2 ± 2.4
333.15 K, 100 kPa | 1022.6 ± 2.1
333.15 K, 10000 kPa | 1029.6 ± 2.1
333.15 K, 20000 kPa | 1036.8 ± 2.1
333.15 K, 30000 kPa | 1043.6 ± 2.1
333.15 K, 40000 kPa | 1049.9 ± 2.1
333.15 K, 50000 kPa | 1056 ± 2.1
333.15 K, 60000 kPa | 1061.5 ± 2.2
333.15 K, 70000 kPa | 1066.9 ± 2.2
333.15 K, 80000 kPa | 1072 ± 2.2
333.15 K, 90000 kPa | 1076.9 ± 2.2
333.15 K, 100000 kPa | 1082 ± 2.3
333.15 K, 110000 kPa | 1086.8 ± 2.3
333.15 K, 120000 kPa | 1091.1 ± 2.3
333.15 K, 130000 kPa | 1095.5 ± 2.4
333.15 K, 140000 kPa | 1099.8 ± 2.4
343.15 K, 100 kPa | 1012.3 ± 2
343.15 K, 10000 kPa | 1020.4 ± 2.1
343.15 K, 20000 kPa | 1028.1 ± 2.1
343.15 K, 30000 kPa | 1034.8 ± 2.1
343.15 K, 40000 kPa | 1041.3 ± 2.1
343.15 K, 50000 kPa | 1047.6 ± 2.1
343.15 K, 60000 kPa | 1053.5 ± 2.1
343.15 K, 70000 kPa | 1058.6 ± 2.2
343.15 K, 80000 kPa | 1064.2 ± 2.2
343.15 K, 90000 kPa | 1069.3 ± 2.2
343.15 K, 100000 kPa | 1074.1 ± 2.2
343.15 K, 110000 kPa | 1079 ± 2.3
343.15 K, 120000 kPa | 1083.9 ± 2.3
343.15 K, 130000 kPa | 1088.3 ± 2.3
343.15 K, 140000 kPa | 1092.4 ± 2.4
353.15 K, 100 kPa | 1002.2 ± 2
353.15 K, 10000 kPa | 1010.8 ± 2
353.15 K, 20000 kPa | 1018.4 ± 2.1
353.15 K, 30000 kPa | 1025.6 ± 2.1
353.15 K, 40000 kPa | 1032.8 ± 2.1
353.15 K, 50000 kPa | 1039 ± 2.1
353.15 K, 60000 kPa | 1045.4 ± 2.1
353.15 K, 70000 kPa | 1051.2 ± 2.1
353.15 K, 80000 kPa | 1056.7 ± 2.2
353.15 K, 90000 kPa | 1061.9 ± 2.2
353.15 K, 100000 kPa | 1067.3 ± 2.2
353.15 K, 110000 kPa | 1072.2 ± 2.2
353.15 K, 120000 kPa | 1076.6 ± 2.3
353.15 K, 130000 kPa | 1081.3 ± 2.3
353.15 K, 140000 kPa | 1085.6 ± 2.3
363.15 K, 100 kPa | 992.2 ± 2
363.15 K, 10000 kPa | 1000.6 ± 2
363.15 K, 20000 kPa | 1008.9 ± 2
363.15 K, 30000 kPa | 1016.6 ± 2
363.15 K, 40000 kPa | 1023.7 ± 2.1
363.15 K, 50000 kPa | 1030.4 ± 2.1
363.15 K, 60000 kPa | 1036.8 ± 2.1
363.15 K, 70000 kPa | 1042.9 ± 2.1
363.15 K, 80000 kPa | 1048.5 ± 2.1
363.15 K, 90000 kPa | 1053.9 ± 2.2
363.15 K, 100000 kPa | 1059.2 ± 2.2
363.15 K, 110000 kPa | 1064.3 ± 2.2
363.15 K, 120000 kPa | 1069.1 ± 2.3
363.15 K, 130000 kPa | 1074.1 ± 2.3
363.15 K, 140000 kPa | 1078.5 ± 2.3
373.15 K, 100 kPa | 981.9 ± 2
373.15 K, 10000 kPa | 991 ± 2
373.15 K, 20000 kPa | 999.5 ± 2
373.15 K, 30000 kPa | 1007.7 ± 2
373.15 K, 40000 kPa | 1014.8 ± 2
373.15 K, 50000 kPa | 1021.8 ± 2.1
373.15 K, 60000 kPa | 1029 ± 2.1
373.15 K, 70000 kPa | 1035 ± 2.1
373.15 K, 80000 kPa | 1040.9 ± 2.1
373.15 K, 90000 kPa | 1046.4 ± 2.1
373.15 K, 100000 kPa | 1051 ± 2.2
373.15 K, 110000 kPa | 1056.3 ± 2.2
373.15 K, 120000 kPa | 1061.6 ± 2.2
373.15 K, 130000 kPa | 1066 ± 2.3
373.15 K, 140000 kPa | 1071.2 ± 2.3
383.15 K, 100 kPa | 972.2 ± 2
383.15 K, 10000 kPa | 981.1 ± 2
383.15 K, 20000 kPa | 990.4 ± 2
383.15 K, 30000 kPa | 998.7 ± 2
383.15 K, 40000 kPa | 1006.3 ± 2
383.15 K, 50000 kPa | 1013.9 ± 2
383.15 K, 60000 kPa | 1020.5 ± 2.1
383.15 K, 70000 kPa | 1027 ± 2.1
383.15 K, 80000 kPa | 1033.2 ± 2.1
383.15 K, 90000 kPa | 1039 ± 2.1
383.15 K, 100000 kPa | 1044.7 ± 2.2
383.15 K, 110000 kPa | 1050.1 ± 2.2
383.15 K, 120000 kPa | 1055.2 ± 2.2
383.15 K, 130000 kPa | 1059.9 ± 2.2
383.15 K, 140000 kPa | 1065.1 ± 2.3
393.15 K, 100 kPa | 961.7 ± 1.9
393.15 K, 10000 kPa | 971.7 ± 2
393.15 K, 20000 kPa | 981.5 ± 2
393.15 K, 30000 kPa | 990.1 ± 2
393.15 K, 40000 kPa | 998.2 ± 2
393.15 K, 50000 kPa | 1005.9 ± 2
393.15 K, 60000 kPa | 1013 ± 2
393.15 K, 70000 kPa | 1019.7 ± 2.1
393.15 K, 80000 kPa | 1026 ± 2.1
393.15 K, 90000 kPa | 1032.1 ± 2.1
393.15 K, 100000 kPa | 1037.7 ± 2.1
393.15 K, 110000 kPa | 1043.1 ± 2.2
393.15 K, 120000 kPa | 1048.7 ± 2.2
393.15 K, 130000 kPa | 1053.8 ± 2.2
393.15 K, 140000 kPa | 1058.5 ± 2.3
403.15 K, 100 kPa | 951.5 ± 1.9
403.15 K, 10000 kPa | 961.4 ± 1.9
403.15 K, 20000 kPa | 971.6 ± 2
403.15 K, 30000 kPa | 980.8 ± 2
403.15 K, 40000 kPa | 989.3 ± 2
403.15 K, 50000 kPa | 997.3 ± 2
403.15 K, 60000 kPa | 1004.5 ± 2
403.15 K, 70000 kPa | 1011.5 ± 2.1
403.15 K, 80000 kPa | 1018.2 ± 2.1
403.15 K, 90000 kPa | 1024.5 ± 2.1
403.15 K, 100000 kPa | 1030.2 ± 2.1
403.15 K, 110000 kPa | 1035.9 ± 2.2
403.15 K, 120000 kPa | 1041.3 ± 2.2
403.15 K, 130000 kPa | 1046.6 ± 2.2
403.15 K, 140000 kPa | 1051.6 ± 2.3
